This note sets out measurements from ChEMBL document CHEMBL1201862, “PubChem BioAssay data set” (2004).

Assay [1] concerns the target Tyrosine-protein kinase SYK (Homo sapiens, UniProt P43405). In kind it is functional.
A further assay has as its target Activin receptor type-1 (Homo sapiens, UniProt Q04771). Nature of the assay: Navigating the Kinome. Panel member name: ACVR1. It counts as functional.
Assay [2] deals with MAP kinase-activated protein kinase 5 (Homo sapiens, UniProt Q8IW41). It counts as functional.
Chain of MAP kinase-activated protein kinase 5 (Q8IW41 whole entry): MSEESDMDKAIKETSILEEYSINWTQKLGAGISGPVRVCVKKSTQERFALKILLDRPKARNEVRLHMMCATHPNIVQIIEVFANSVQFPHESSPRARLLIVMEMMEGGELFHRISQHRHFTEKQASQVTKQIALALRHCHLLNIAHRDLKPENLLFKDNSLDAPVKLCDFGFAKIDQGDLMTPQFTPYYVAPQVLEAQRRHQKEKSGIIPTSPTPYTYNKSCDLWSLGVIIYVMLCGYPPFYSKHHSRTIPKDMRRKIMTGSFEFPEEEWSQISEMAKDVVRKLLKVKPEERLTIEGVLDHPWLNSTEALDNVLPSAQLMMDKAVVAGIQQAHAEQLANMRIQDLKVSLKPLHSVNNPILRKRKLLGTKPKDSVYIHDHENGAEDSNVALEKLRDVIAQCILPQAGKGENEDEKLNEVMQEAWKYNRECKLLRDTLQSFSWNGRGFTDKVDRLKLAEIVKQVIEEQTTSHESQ
The target in assay [3] is Mast/stem cell growth factor receptor Kit (Homo sapiens, UniProt P10721). It counts as functional.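 Note: KIT entry within a kinase panel assay.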
Chain of Mast/stem cell growth factor receptor Kit (P10721 whole entry, canonical isoform): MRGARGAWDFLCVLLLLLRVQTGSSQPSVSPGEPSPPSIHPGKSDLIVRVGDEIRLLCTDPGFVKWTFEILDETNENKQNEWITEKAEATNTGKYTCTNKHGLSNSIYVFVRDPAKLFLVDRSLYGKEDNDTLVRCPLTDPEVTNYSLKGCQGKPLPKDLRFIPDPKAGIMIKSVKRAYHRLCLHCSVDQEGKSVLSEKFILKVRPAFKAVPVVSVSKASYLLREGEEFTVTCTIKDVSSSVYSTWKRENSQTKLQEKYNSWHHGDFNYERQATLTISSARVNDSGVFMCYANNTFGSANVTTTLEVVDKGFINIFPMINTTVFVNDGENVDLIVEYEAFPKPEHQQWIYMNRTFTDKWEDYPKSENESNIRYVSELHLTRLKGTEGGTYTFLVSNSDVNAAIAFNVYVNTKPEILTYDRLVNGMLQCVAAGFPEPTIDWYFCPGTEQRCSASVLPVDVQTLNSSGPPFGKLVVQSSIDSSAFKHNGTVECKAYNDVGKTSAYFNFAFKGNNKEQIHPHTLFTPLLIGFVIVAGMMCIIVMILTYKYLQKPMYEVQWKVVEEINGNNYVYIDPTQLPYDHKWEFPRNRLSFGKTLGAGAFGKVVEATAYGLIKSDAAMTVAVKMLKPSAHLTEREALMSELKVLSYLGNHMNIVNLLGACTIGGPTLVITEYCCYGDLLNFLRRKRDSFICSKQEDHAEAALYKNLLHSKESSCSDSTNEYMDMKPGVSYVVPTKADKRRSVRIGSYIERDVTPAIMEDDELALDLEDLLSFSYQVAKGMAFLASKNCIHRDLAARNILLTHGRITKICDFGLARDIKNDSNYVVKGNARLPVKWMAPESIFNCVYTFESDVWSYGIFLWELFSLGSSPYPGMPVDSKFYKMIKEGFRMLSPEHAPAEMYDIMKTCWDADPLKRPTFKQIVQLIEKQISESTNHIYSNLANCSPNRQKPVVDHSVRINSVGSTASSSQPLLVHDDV
For assay [4], the target named is Casein kinase I isoform alpha (Homo sapiens, UniProt P48729). In kind it is functional.
The target in assay [5] is Mitogen-activated protein kinase kinase kinase 20 (Homo sapiens, UniProt Q9NYL2). In kind it is functional.
Assay [6] concerns the target Serine/threonine-protein kinase pim-3 (Homo sapiens, UniProt Q86V86). It counts as functional.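 Note: value obtained as one member of a broad kinase panel profiling effort.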
Assay [7] has as its target Tyrosine-protein kinase Srms (Homo sapiens, UniProt Q9H3Y6). In kind it is functional.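 Note: SRMS measured as one member of a kinome-wide kinase profiling panel.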
Assay [8] has as its target Vascular endothelial growth factor receptor 2 (Homo sapiens, UniProt P35968). It counts as functional.
Assay [9] has as its target Dual specificity tyrosine-phosphorylation-regulated kinase 4 (Homo sapiens, UniProt Q9NR20). It counts as functional.
In assay [10] the target is Interleukin-1 receptor-associated kinase 1 (Homo sapiens, UniProt P51617). It counts as functional.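 Note: IRAK1 tested as one member of a kinome panel.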
Chain of Interleukin-1 receptor-associated kinase 1 (P51617 whole entry): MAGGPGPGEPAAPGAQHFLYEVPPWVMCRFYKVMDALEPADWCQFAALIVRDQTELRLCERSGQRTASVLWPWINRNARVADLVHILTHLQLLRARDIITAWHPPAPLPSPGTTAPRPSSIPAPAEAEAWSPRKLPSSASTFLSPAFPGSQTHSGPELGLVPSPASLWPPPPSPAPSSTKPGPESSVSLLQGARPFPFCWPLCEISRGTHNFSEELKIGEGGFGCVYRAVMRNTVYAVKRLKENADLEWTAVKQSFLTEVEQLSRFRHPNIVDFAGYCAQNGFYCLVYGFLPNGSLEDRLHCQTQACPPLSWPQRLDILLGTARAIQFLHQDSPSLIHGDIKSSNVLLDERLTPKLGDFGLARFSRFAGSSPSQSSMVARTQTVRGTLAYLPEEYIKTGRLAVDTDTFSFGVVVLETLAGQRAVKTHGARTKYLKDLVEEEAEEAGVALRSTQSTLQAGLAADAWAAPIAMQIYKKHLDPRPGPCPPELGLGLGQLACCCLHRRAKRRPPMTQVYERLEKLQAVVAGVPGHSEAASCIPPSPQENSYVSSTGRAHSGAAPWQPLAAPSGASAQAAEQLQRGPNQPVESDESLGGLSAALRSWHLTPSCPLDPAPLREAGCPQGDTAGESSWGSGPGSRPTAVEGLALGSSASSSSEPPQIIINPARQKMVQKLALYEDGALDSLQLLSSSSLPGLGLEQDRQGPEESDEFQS
For the next assay, the target named is Aurora kinase B (Homo sapiens, UniProt Q96GD4). In kind it is functional.
Chain of Aurora kinase B (Q96GD4 whole entry): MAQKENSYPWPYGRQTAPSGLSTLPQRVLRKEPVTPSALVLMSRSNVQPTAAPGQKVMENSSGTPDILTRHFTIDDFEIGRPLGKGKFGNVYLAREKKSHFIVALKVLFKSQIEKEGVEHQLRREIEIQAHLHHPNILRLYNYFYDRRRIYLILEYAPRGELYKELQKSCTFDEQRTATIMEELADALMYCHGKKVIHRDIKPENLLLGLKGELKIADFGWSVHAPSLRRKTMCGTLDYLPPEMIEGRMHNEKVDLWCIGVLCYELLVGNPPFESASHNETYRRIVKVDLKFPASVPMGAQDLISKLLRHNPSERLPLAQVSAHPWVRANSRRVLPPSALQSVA
The target of assay [11] is Interleukin-1 receptor-associated kinase 4 (Homo sapiens, UniProt Q9NWZ3). It counts as functional.
Chain of Interleukin-1 receptor-associated kinase 4 (Q9NWZ3 whole entry): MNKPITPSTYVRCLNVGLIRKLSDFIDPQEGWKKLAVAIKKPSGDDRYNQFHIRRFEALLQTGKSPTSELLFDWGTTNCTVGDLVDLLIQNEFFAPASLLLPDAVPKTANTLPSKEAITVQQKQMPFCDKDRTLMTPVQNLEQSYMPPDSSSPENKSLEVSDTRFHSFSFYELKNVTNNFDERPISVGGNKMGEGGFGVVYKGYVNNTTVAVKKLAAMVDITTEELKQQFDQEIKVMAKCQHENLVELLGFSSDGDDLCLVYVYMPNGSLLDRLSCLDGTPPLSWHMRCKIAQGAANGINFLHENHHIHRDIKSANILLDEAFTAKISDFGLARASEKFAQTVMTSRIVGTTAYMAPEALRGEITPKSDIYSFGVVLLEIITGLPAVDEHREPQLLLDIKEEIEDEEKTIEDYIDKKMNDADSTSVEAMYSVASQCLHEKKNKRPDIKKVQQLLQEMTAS
Assay [12] has as its target Serine/threonine-protein kinase Nek2 (Homo sapiens, UniProt P51955). In kind it is functional.
The target of assay [13] is STE20-like serine/threonine-protein kinase (Homo sapiens, UniProt Q9H2G2). In kind it is functional.
Chain of STE20-like serine/threonine-protein kinase (Q9H2G2 whole entry): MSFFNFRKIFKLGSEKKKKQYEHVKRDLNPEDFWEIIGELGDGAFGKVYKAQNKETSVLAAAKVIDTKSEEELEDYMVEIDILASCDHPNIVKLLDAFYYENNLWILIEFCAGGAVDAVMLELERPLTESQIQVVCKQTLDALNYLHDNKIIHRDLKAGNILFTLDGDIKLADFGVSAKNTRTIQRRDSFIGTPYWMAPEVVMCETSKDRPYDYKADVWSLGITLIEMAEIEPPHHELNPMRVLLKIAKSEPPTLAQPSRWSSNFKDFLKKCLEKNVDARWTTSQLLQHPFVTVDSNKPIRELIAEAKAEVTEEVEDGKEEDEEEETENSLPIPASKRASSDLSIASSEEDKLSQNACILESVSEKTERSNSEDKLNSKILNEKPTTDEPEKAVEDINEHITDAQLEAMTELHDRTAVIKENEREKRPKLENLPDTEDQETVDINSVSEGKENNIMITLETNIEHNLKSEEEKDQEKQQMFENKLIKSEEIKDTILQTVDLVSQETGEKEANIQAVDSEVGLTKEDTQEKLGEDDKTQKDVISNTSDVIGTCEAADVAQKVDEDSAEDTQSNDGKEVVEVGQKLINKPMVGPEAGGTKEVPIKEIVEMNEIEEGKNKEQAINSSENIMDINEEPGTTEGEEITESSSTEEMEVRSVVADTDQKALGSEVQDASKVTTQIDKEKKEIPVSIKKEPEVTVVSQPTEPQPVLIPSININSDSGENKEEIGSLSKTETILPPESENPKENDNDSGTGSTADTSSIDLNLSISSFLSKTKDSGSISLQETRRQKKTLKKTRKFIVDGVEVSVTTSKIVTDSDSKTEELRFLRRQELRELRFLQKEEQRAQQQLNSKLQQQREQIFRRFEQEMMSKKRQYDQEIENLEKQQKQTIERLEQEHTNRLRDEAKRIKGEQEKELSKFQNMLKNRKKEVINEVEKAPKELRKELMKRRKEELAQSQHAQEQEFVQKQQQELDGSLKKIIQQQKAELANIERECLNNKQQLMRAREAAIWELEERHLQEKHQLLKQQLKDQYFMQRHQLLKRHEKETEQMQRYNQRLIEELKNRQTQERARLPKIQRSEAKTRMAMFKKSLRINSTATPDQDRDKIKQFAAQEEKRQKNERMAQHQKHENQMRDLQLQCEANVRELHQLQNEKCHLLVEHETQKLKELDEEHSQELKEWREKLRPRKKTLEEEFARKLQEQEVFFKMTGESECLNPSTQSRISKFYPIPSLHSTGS
Assay [14] deals with Receptor tyrosine-protein kinase erbB-4 (Homo sapiens, UniProt Q15303). It counts as functional.
In assay [15] the target is Macrophage colony-stimulating factor 1 receptor (Homo sapiens, UniProt P07333). In kind it is functional.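 Note: value comes from the Navigating the Kinome screening panel, CSF1R member.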
The target in assay [16] is Inhibitor of nuclear factor kappa-B kinase subunit epsilon (Homo sapiens, UniProt Q14164). Nature of the assay: Navigating the Kinome. Panel member name: IKBKE. It counts as functional.
For assay [17], the target named is Leukocyte tyrosine kinase receptor (Homo sapiens, UniProt P29376). Nature of the assay: Navigating the Kinome. Panel member name: LTK. In kind it is functional.
The target of another assay is T1, Caspase-3 (Homo sapiens, UniProt P42574).
T1 sequence (P42574 whole entry): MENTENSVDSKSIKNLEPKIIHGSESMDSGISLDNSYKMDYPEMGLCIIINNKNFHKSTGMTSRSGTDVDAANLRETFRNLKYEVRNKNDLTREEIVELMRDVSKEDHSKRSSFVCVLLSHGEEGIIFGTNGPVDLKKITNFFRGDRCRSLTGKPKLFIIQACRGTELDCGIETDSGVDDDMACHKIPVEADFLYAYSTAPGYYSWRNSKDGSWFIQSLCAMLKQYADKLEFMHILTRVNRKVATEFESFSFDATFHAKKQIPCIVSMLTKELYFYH
Nature of the assay: activation of caspase-3 zymogen – biochemical, absorbance, dose response (AID 489014).

The nature of assay [18]: alpha-synuclein stem-loop luciferase translation blockers – H4 neuroglioma cells, luminescence, confirmation (AID 1988). It counts as functional, cell-based.
The next assay concerns the target SUMO-activating enzyme (Homo sapiens, UniProt Q9UBT2). Nature of the assay: blockers of SAE1/SAE2–UBC9 SUMO transfer – biochemical, HTRF, uHTS, primary screen (AID 2006). In kind it is protein-complex assay.
Assay [19] has as its target Serine/threonine-protein phosphatase (Homo sapiens, UniProt Q9BPW0). Nature of the assay: inhibition of protein phosphatase 5 activity – biochemical, fluorescence, dose response (AID 2395).
Another assay deals with T2, Protein RecA (Mycobacterium tuberculosis, UniProt P9WHJ3).
T2 sequence (P9WHJ3 whole entry): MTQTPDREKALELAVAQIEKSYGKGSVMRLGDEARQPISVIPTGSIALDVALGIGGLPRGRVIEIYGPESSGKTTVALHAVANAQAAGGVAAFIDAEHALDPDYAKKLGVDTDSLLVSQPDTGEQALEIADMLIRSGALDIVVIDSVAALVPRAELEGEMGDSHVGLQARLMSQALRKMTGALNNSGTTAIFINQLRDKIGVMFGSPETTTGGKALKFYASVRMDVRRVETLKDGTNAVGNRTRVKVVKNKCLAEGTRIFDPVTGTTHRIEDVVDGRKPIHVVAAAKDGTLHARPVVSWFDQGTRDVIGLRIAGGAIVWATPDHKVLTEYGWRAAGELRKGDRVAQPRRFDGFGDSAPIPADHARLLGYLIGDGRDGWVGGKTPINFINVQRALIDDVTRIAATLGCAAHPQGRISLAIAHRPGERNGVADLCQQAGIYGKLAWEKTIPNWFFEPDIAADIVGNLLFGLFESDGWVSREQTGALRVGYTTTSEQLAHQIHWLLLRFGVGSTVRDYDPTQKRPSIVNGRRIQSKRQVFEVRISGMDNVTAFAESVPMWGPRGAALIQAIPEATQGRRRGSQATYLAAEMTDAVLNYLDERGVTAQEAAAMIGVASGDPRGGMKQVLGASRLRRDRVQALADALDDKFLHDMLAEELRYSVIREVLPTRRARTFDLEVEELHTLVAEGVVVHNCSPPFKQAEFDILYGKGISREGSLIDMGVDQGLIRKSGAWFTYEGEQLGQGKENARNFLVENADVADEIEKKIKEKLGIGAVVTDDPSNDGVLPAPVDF
Nature of the assay: Fluorescence Cell-Free Homogeneous Dose Retest to Identify Inhibitors of RecA-Intein Splicing Activity. [Related pubchem assays (depositor defined):AID2097, AID2223, AID489010, AID492950]. It counts as functional.

The target of the next assay is Genome polyprotein (dengue virus type 2, UniProt P29990). Nature of the assay: flavivirus cap methylation enzyme inhibition – biochemical, confirmation dose response, primary screen (AID 588689). It counts as functional.

Activity calls are given as the source filed them.

Chain of Serine/threonine-protein kinase Nek2 (P51955 whole entry): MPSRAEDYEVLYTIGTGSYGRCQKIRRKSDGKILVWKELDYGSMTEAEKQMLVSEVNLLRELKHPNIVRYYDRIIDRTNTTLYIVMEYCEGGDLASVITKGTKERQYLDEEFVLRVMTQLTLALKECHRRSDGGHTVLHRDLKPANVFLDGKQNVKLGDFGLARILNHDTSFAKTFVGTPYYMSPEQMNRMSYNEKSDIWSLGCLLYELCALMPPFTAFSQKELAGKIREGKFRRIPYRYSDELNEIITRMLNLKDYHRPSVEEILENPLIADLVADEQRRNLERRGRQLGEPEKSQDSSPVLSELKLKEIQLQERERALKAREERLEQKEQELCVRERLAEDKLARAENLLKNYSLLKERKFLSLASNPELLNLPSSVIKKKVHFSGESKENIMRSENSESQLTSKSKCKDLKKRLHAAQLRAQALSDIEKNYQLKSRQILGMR

On to `Clc1cc(-c2c[nH]c3ncccc23)nc(NC2CCCCC2)n1`, for which the Ki is > 1.58 µM (inactive) in assay [1]; > 3.98 µM (inactive) on Activin receptor type-1; > 1.58 µM (inactive) in assay [2]; > 1.26 µM (inactive) in assay [3]; 1.58 µM (active) in [4]; > 7.94 µM (inactive) in assay [5]. Also, the Ki was > 7.94 µM (inactive) in assay [6]; > 1.58 µM (inactive) in assay [7]; 2.51 µM (active) in [8]; 0.501 µM (active) in [9]; 0.0501 µM (active) in assay [10]; > 6.31 µM (inactive) on Aurora kinase B. The Ki was 0.158 µM (active) in assay [11]; > 10 µM (inactive) in [12]; 6.31 µM (active) in assay [13]; > 3.98 µM (inactive) in [14]; > 1.58 µM (inactive) in assay [15]; > 3.16 µM (inactive) in assay [16]. The Ki in [17] was > 2.51 µM (inactive).
With `O=C(N/N=C/c1ccc(O)cc1O)c1ccc(CN2C(=O)c3cccc4cccc2c34)cc1`, the EC50 on Caspase-3 is > 85.3 µM (inactive).
In the case of `NS(=O)(=O)c1ccc(NC2=CC(=O)C(=O)c3ccccc32)cc1`, the EC50 in assay [18] was 8.45 µM (active); at Protein RecA, 0.667 µM (active). In addition, the results for the IC50 (at SUMO-activating enzyme; in [19]; on Genome polyprotein) were 9.54 µM (active), > 67 µM (not active) and 39 µM (active), respectively.
